From article PMC5775429, “LY2087101 and dFBr share transmembrane binding sites in the (α4)3(β2)2 Nicotinic Acetylcholine Receptor” (Scientific Reports, 2018)
Values joined by “and” are separate entries in the source; they are usually repeats but may differ in a detail not shown here. Identical values can stand only once. Marks after values point to notes of the source that are not given here.

Columns and labels:
(α4)3(β2)2 nAChR = molecular target: T1, (α4)3(β2)2 nAChR (Homo sapiens, UniProt P17787+P43681); assay: Two-electrode voltage-clamp of ACh-induced currents in Xenopus oocytes; assay type: cell-based
T1 construct: expressed in transfected cells; host or cells: Xenopus laevis oocytes injected with cRNA
T1 sequence (P43681 29-627 limits assumed): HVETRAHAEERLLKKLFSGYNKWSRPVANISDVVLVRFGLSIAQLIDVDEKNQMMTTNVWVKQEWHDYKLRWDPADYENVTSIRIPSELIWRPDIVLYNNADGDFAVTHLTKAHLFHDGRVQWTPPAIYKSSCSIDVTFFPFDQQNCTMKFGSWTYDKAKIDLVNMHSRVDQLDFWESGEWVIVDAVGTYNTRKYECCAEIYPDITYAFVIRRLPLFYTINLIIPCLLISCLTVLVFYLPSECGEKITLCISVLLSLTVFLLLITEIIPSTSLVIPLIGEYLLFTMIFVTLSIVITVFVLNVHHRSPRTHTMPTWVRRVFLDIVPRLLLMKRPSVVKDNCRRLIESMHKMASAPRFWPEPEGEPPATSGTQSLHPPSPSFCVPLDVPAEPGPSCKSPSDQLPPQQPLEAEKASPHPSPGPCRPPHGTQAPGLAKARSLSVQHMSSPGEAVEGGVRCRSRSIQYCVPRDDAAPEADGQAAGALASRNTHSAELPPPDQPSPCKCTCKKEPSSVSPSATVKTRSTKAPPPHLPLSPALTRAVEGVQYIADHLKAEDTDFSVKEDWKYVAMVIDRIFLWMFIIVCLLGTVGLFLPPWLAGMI
T1 sequence (P17787 26-502): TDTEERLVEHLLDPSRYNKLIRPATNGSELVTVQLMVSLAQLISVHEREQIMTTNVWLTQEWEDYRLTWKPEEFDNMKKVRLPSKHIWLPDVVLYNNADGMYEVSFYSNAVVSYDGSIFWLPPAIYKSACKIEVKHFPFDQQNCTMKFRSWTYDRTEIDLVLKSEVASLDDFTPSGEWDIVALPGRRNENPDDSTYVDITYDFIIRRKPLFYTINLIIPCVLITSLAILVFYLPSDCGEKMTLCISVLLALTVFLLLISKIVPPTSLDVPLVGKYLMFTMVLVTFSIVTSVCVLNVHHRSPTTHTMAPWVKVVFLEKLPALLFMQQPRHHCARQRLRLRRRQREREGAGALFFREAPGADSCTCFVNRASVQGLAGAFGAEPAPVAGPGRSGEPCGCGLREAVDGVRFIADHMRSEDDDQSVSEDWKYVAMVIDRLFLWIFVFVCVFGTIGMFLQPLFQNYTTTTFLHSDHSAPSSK
Procedure: To begin to characterize LY2087101 interaction with the heteropentameric α4β2 nAChRs, we examined the selectivity of LY2087101 for the two α4β2 nAChR isoforms; high-agonist sensitivity (α4)2(β2)3 and low-agonist sensitivity (α4)3(β2)2 nAChRs. Xenopus oocytes were injected with α4 and β2 subunits RNAs at ratios 8:1 and 1:8 to favor expression of (α4)3(β2)2 and (α4)2(β2)3 nAChRs, respectively.
(§1) Ovarian lobules were surgically harvested from oocytes-positive female Xenopus laevis (NASCO, Fort Atkinson, WI) according to an animal use protocol approved by the Texas A&M Health Sciences Center Institutional Animals Care and Use Committee. The Texas A&M Health Sciences Center Research Facility is registered as an animal research facility with the United States Department of Agriculture and is fully accredited by the American Association for Accreditation of Laboratory Animal Care (AAALAC). For oocytes defolliculation, ovarian lobes were treated with 3 mg/ml collagenase type 2 (Worthington Biomedical, Lakewood, NJ) in Ca + 2-free buffer (85 mM NaCl, 2.5 mM KCl, 1 mM MgCl2, 5 mM HEPES, pH 7.6). Collagenase treatment was allowed to proceed for 3 hours at room temperature with gentle shaking then oocytes were washed several times with buffer to remove collagenase then with ND96-gentamicine buffer. Healthy Stage V and VI oocytes were visually selected and maintained at 18 °C in modified ND96-gentamicine buffer (96 mM NaCl, 2 mM KCl, 1.8 mM CaCl2, 1 mM MgCl2, 5 mM HEPES, 50 µg/ml gentamicin, pH 7.6). Oocytes were injected with 50–100 ng of the desired nAChR subunits cRNA mix at ratios of 8α:1β or 1α:8β to express nAChRs with subunit stoichiometries of 3α:2β (low agonist sensitivity) or 2α:3β (high agonist sensitivity), respectively.
(§2) Oocytes were continuously perfused with recording buffer (100 mM NaCl, 2 mM KCl, 1 mM CaCl2, 0.8 mM MgCl2, 1 mM EGTA, 10 mM Hepes, pH 7.5) except during periods of drug applications.

(α4T152I)3(β2)2 nAChR = (α4T152I)3(β2)2 nAChR (Homo sapiens, UniProt P43681, T152I); design: method as in PMID 28446611; settings: 10 µM ACh + 1 µM dFBr vs 10 µM ACh alone; data reported previously ref 29; cited from earlier work
(α4T152I)3(β2)2 nAChR, sequence (P43681 29-627 T152I limits assumed): as the sequence (P43681 29-627 limits assumed) above, with T124I counted along it
(α4T152I)3(β2)2 nAChR, sequence (P17787 26-502 partner): as the sequence (P17787 26-502) above

(α4V609A)3(β2)2 nAChR = molecular target: T2, (α4V609A)3(β2)2 nAChR (Homo sapiens, UniProt P17787+P43681, V609A); assay: Two-electrode voltage-clamp of ACh-induced currents in Xenopus oocytes; assay type: cell-based; settings: 10 µM ACh + 1 µM PAM vs 10 µM ACh alone
T2 construct: expressed in transfected cells; host or cells: Xenopus laevis oocytes injected with cRNA
T2 sequence (P43681 29-627 V609A limits assumed): as the sequence (P43681 29-627 limits assumed) above, with V581A counted along it
T2 sequence (P17787 26-502): as the sequence (P17787 26-502) above
Procedure: (§3) For amino acid substitutions within the α4 nAChR subunit, point mutations were introduced into pSP64ployA plasmid with cDNA encoding for human α4 nAChR subunit with mutagenic primer pairs using the Quick Change II Site-Directed Mutagenesis Kit (Agilent Technologies) then confirmed by DNA sequencing (GENEWIZ, LLC, South Plainfield, NJ). cRNA transcripts suitable for oocyte expression were prepared in vitro from linearized plasmids [α3 (BamH1), α4 (AseI), β2 (PvuII), β4 (XhoI)] using mMESSAGE mMACHINE high yield capped RNA transcription kits (Ambion) and purified on NucAway Spin column (Invitrogen). cRNA concentration was determined by spectroscopy (Concentration (ug/ul) = Abs260 * 40), aliquoted and stored at −80 °C until used.
as §1, §2

(α4C254S)3(β2)2 nAChR = molecular target: T3, (α4C254S)3(β2)2 nAChR (Homo sapiens, UniProt P17787+P43681, C254S); assay: as above; assay type: cell-based
T3 construct: expressed in transfected cells; host or cells: Xenopus laevis oocytes injected with cRNA
T3 sequence (P43681 29-627 C254S limits assumed): as the sequence (P43681 29-627 limits assumed) above, with C226S counted along it
T3 sequence (P17787 26-502): as the sequence (P17787 26-502) above
Procedure: as §3, §1, §2

(α4I315A)3(β2)2 nAChR = molecular target: T4, (α4I315A)3(β2)2 nAChR (Homo sapiens, UniProt P17787+P43681, I315A); assay: as above; assay type: cell-based; settings: 10 µM ACh + 1 µM PAM vs 10 µM ACh alone
T4 construct: expressed in transfected cells; host or cells: Xenopus laevis oocytes injected with cRNA
T4 sequence (P43681 29-627 I315A limits assumed): as the sequence (P43681 29-627 limits assumed) above, with I287A counted along it
T4 sequence (P17787 26-502): as the sequence (P17787 26-502) above
Procedure: as §3, §1, §2

(α4T313C)3(β2)2 nAChR = molecular target: T5, (α4T313C)3(β2)2 nAChR (Homo sapiens, UniProt P17787+P43681, T313C); assay: as above; assay type: cell-based; settings: 10 µM ACh + 1 µM PAM vs 10 µM ACh alone
T5 construct: expressed in transfected cells; host or cells: Xenopus laevis oocytes injected with cRNA
T5 sequence (P43681 29-627 T313C limits assumed): as the sequence (P43681 29-627 limits assumed) above, with T285C counted along it
T5 sequence (P17787 26-502): as the sequence (P17787 26-502) above
Procedure: as §3, §1, §2

(α4F312V)3(β2)2 nAChR = molecular target: T6, (α4F312V)3(β2)2 nAChR (Homo sapiens, UniProt P17787+P43681, F312V); assay: as above; assay type: cell-based
T6 construct: expressed in transfected cells; host or cells: Xenopus laevis oocytes injected with cRNA
T6 sequence (P43681 29-627 F312V limits assumed): as the sequence (P43681 29-627 limits assumed) above, with F284V counted along it
T6 sequence (P17787 26-502): as the sequence (P17787 26-502) above
Procedure: as §3, §1, §2

(α4I608L)3(β2)2 nAChR = molecular target: T7, (α4I608L)3(β2)2 nAChR (Homo sapiens, UniProt P17787+P43681, I608L); assay: as above; assay type: cell-based; settings: 10 µM ACh + 1 µM PAM vs 10 µM ACh alone
T7 construct: expressed in transfected cells; host or cells: Xenopus laevis oocytes injected with cRNA
T7 sequence (P43681 29-627 I608L limits assumed): as the sequence (P43681 29-627 limits assumed) above, with I580L counted along it
T7 sequence (P17787 26-502): as the sequence (P17787 26-502) above
Procedure: as §3, §1, §2

(α4M605V)3(β2)2 nAChR = molecular target: T8, (α4M605V)3(β2)2 nAChR (Homo sapiens, UniProt P17787+P43681, M605V); assay: as above; assay type: cell-based; settings: 10 µM ACh + 1 µM PAM vs 10 µM ACh alone
T8 construct: expressed in transfected cells; host or cells: Xenopus laevis oocytes injected with cRNA
T8 sequence (P43681 29-627 M605V limits assumed): as the sequence (P43681 29-627 limits assumed) above, with M577V counted along it
T8 sequence (P17787 26-502): as the sequence (P17787 26-502) above
Procedure: as §3, §1, §2

(α4S258M)3(β2)2 nAChR = (α4S258M)3(β2)2 nAChR (Homo sapiens, UniProt P43681, S258M); assay: as above; assay type: cell-based; settings: 10 µM ACh + 1 µM PAM vs 10 µM ACh alone
(α4S258M)3(β2)2 nAChR, sequence (P43681 29-627 S258M limits assumed): as the sequence (P43681 29-627 limits assumed) above, with S230M counted along it
(α4S258M)3(β2)2 nAChR, sequence (P17787 26-502 partner): as the sequence (P17787 26-502) above
Procedure: as §3, §1, §2

(α4S284G)3(β2)2 nAChR = molecular target: T9, (α4S284G)3(β2)2 nAChR (Homo sapiens, UniProt P17787+P43681, S284G); assay: as above; assay type: cell-based; settings: 10 µM ACh + 1 µM PAM vs 10 µM ACh alone
T9 construct: expressed in transfected cells; host or cells: Xenopus laevis oocytes injected with cRNA
T9 sequence (P43681 29-627 S284G limits assumed): as the sequence (P43681 29-627 limits assumed) above, with S256G counted along it
T9 sequence (P17787 26-502, stated change not applied): as the sequence (P17787 26-502) above
Procedure: as §3, §1, §2

(α4L310F)3(β2)2 nAChR = molecular target: T10, (α4L310F)3(β2)2 nAChR (Homo sapiens, UniProt P17787+P43681, L310F); assay: as above; assay type: cell-based; settings: 10 µM ACh + 1 µM PAM vs 10 µM ACh alone
T10 construct: expressed in transfected cells; host or cells: Xenopus laevis oocytes injected with cRNA
T10 sequence (P43681 29-627 L310F limits assumed): as the sequence (P43681 29-627 limits assumed) above, with L282F counted along it
T10 sequence (P17787 26-502): as the sequence (P17787 26-502) above
Procedure: as §3, §1, §2

α3β4 nAChR = molecular target: T11, α3β4 nAChR (Homo sapiens, UniProt P30926+P32297); assay: as above; assay type: cell-based; settings: 1 μM PAM
T11 construct: expressed in transfected cells; host or cells: Xenopus laevis oocytes injected with cRNA
T11 sequence (P32297 32-505): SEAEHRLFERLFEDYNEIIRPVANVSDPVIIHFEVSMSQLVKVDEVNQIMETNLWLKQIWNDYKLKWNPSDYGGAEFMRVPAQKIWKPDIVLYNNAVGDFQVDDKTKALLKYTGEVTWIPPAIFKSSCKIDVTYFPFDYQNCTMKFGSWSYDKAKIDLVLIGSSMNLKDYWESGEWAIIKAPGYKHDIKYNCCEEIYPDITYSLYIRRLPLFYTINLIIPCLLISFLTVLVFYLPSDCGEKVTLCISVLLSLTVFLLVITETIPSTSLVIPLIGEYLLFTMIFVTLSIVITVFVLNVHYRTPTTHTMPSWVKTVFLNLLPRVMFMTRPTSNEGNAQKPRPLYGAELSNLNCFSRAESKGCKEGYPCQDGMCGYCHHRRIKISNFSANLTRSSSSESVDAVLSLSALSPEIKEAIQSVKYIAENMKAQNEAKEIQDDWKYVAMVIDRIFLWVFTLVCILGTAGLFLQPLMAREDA
T11 sequence (P30926 22-498): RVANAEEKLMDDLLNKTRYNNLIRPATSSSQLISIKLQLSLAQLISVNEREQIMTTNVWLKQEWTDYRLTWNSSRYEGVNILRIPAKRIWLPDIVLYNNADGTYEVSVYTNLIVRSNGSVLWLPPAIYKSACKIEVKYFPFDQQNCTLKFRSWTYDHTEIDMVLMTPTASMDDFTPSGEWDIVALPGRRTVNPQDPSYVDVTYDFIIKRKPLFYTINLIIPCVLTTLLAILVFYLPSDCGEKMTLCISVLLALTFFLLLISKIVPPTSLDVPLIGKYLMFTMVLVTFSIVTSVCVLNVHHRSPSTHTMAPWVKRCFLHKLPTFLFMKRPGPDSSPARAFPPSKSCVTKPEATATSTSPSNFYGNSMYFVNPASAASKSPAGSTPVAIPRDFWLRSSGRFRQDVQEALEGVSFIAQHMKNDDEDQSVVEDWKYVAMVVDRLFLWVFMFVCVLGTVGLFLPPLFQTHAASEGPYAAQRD
Procedure: Next, Xenopus oocytes were injected with RNA mixes of […], α3:β4, […], or α4:β4 at ratios of 8:1, 1:1, or 1:8 to express nAChRs with different subunit composition and with various α:β ratios.
as §1, §2

(α4E92I)3(β2)2 nAChR = (α4E92I)3(β2)2 nAChR (Homo sapiens, UniProt P43681, E92I); design: method as in PMID 28446611; settings: 10 µM ACh + 1 µM dFBr vs 10 µM ACh alone; data reported previously ref 29; cited from earlier work
(α4E92I)3(β2)2 nAChR, sequence (P43681 29-627 E92I limits assumed): as the sequence (P43681 29-627 limits assumed) above, with E64I counted along it
(α4E92I)3(β2)2 nAChR, sequence (P17787 26-502 partner): as the sequence (P17787 26-502) above

[1] = read-out: dFBr potentiation EC50
[2] = 10 µM ACh + 1 µM PAM vs 10 µM ACh alone

SMILES: C=CC(C)(C)c1[nH]c2cc(Br)ccc2c1CCNC [dFBr]
- R, potentiation ratio (PR) ((α4)3(β2)2 nAChR; 10 µM ACh + 1 µM PAM vs 10 µM ACh alone, WT): 4.4 ± 0.2
- dFBr potentiation h (Hill coefficient) ((α4)3(β2)2 nAChR; co-applied with 10 μM ACh, WT): 1.1 ± 0.2
- dFBr potentiation Imax ((α4)3(β2)2 nAChR; normalized to 10 µM ACh alone, WT): 580 ± 42%
- EC50 ((α4)3(β2)2 nAChR; [1]): 1000 ± 300 nM
- R, potentiation ratio (PR) ((α4T152I)3(β2)2 nAChR): 2.6 ± 0.4^a
- R, potentiation ratio (PR) ((α4V609A)3(β2)2 nAChR): 3.2 ± 0.2
- R, potentiation ratio (PR) ((α4C254S)3(β2)2 nAChR; [2]): 3.6 ± 0.4
- ACh Imax in the presence of 1 µM dFBr ((α4C254S)3(β2)2 nAChR; ACh concentration-response curve, normalized to 1 mM ACh alone): 190 ± 08%
- dFBr potentiation h (Hill coefficient) ((α4C254S)3(β2)2 nAChR; co-applied with 10 μM ACh): 0.8 ± 0.1
- dFBr potentiation Imax ((α4C254S)3(β2)2 nAChR; normalized to 10 µM ACh alone): 430 ± 31%
- EC50 ((α4C254S)3(β2)2 nAChR; [1]): 1500 ± 500 nM
- R, potentiation ratio (PR) ((α4I315A)3(β2)2 nAChR): 1.2 and ~ 1.2 and 1.2 ± 0.2
- R, potentiation ratio (PR) ((α4T313C)3(β2)2 nAChR): 3.9 ± 0.4
- R, potentiation ratio (PR) ((α4F312V)3(β2)2 nAChR; [2]): 1.2 and ~ 1.2 and 1.2 ± 0.1
- dFBr concentration-dependent potentiation of ACh-current responses ((α4F312V)3(β2)2 nAChR; dFBr up to 10 µM, 10 μM ACh): did not potentiate
- R, potentiation ratio (PR) ((α4I608L)3(β2)2 nAChR): 5.4 ± 0.4
- R, potentiation ratio (PR) ((α4M605V)3(β2)2 nAChR): 5.3 ± 1.2
- R, potentiation ratio (PR) ((α4S258M)3(β2)2 nAChR): 5.0 ± 0.5
- R, potentiation ratio (PR) ((α4S284G)3(β2)2 nAChR): 2.8 ± 0.4
- R, potentiation ratio (PR) ((α4L310F)3(β2)2 nAChR): 5.6 ± 0.3
- potentiation of ACh responses (α3β4 nAChR): did not potentiate
- R, potentiation ratio (PR) ((α4E92I)3(β2)2 nAChR): 9.3 ± 1.8^a
